Experimental data taken from US20210403415A1, “COMPOUNDS AND METHODS TO ATTENUATE TUMOR PROGRESSION AND METASTASIS” (THE TRUSTEES OF INDIANA UNIVERSITY, priority 2018, published 2021).

Legend:
[1] = test system: TEAD4 transcriptional activity; assay: TEAD4 luciferase reporter in GBM43 cells; format: cell-based, human
Protocol: FIG. 8A illustrates relative percent viability of spheroids of patient-derived GBM43 glioblastoma cell lines were grown and treated with compound 1, compound 2, and compound 5; mean±s.d.; n=3 biological replicates. FIG. 8B illustrates the measured activity of the TEAD4 luciferase reporter in GBM43 cells treated with either vehicle or compound 2. CNYT corresponds to no transfection; mean±s.d.; n=3 biological replicates. FIG. 8C illustrates qRT-PCR analysis of CTGF levels following treatment of HEK-293T cells with compounds; mean±s.d.; n=3 biological replicates. FIG. 8D illustrates relative percent viability of spheroids of patient-derived GBM43 glioblastoma cell lines were grown and treated with temozolomide; mean±s.d. of biological replicates (n=3). P values were calculated using two-tailed t-tests. *P<0.05, **P<0.005, ***P<0.0005.

[2] = target: T1, TEAD4 binding to full-length Yap1 (Homo sapiens, UniProt Q15561); assay: Biolayer interferometry, TEAD4 binding to captured full-length GST-Yap1; conditions: 100 nM TEAD4 pre-incubated 24 or 48 h at 4° C.
T1 construct: TEAD4 (217-434), TEAD4 (217-434) Cys367Ser mutant and Yap1 (Full-length) were expressed as GST-fusion proteins; GST (N); made in house; host or cells: E. coli BL-21 (DE3), pGEX-6P-1
T1 sequence (Q15561 217-434): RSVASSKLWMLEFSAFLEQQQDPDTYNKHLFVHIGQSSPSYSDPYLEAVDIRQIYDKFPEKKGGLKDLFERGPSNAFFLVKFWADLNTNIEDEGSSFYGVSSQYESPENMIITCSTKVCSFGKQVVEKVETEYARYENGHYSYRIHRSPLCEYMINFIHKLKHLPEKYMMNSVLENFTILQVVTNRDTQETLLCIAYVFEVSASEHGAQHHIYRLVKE
Protocol: Biolayer interferometry was measured on OctetRed 384 (ForteBio, Menlo Park, Calif.) using PBS with 0.025% v/v Tween-20 at 30° C. with constant shaking at 1000 rpm. Streptavidin-conjugated sensors (ForteBio, Menlo Park, Calif.) were loaded with 30 μg/ml biotin-labeled GST-Yap or biocytin and were introduced to 1-1000 nM TEAD4. The sensors were regenerated with 5 mM HCl solution after each interaction. For compound inhibition study, 100 nM TEAD4 was pre-incubated with […] compound 2 in 2% v/v DMSO for 24 h at 4° C. before interaction with captured GST-Yap.

[3] = target: uPAR.uPA protein-protein interaction (Homo sapiens, UniProt Q03405); assay: Fluorescence polarization, urokinase receptor with peptide AE147; format: binding; conditions: 24 h at 4° C.
Sequence of uPAR.uPA protein-protein interaction (Q03405 23-305 limits assumed): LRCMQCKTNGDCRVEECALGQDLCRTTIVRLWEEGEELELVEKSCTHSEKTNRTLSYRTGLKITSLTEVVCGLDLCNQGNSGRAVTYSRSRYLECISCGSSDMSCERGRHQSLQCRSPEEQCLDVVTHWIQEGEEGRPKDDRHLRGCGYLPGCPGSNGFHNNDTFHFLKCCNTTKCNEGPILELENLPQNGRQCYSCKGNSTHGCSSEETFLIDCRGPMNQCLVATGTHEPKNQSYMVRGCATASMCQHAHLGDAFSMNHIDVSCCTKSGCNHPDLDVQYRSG
Description: The selectivity of the compounds was explored with two unrelated protein-protein interactions between (i) the urokinase receptor (uPAR) and its ligand urokinase (uPA); and (ii) the a subunit of the voltage-gated calcium channel Cav2.2 with its β subunit Cavβ3. […] Both proteins have cysteine residues capable of forming covalent adducts.
FIG. 4D illustrates BLI measurements of the binding of TEAD4 to captured Yap when biotin-labeled GST-Yap1 was captured onto streptavidin-conjugated biolayer interferometry sensors which were dipped into varying concentrations of TEAD4. (mean±s.d.; n=3). […] FIG. 4F illustrates measured fluorescence polarization when increasing concentration of HIS-TEAD2 was mixed with 16 nM FAM-Yap60-99 peptide (mean±s.d.; n=3). FIG. 4G illustrates measured fluorescence polarization when HIS-TEAD2 was incubated with increasing concentration of compounds for 24 h at 4° C. followed by addition of FAM-Yap60-99 (mean±s.d.; n=3). FIG. 4H illustrates measured fluorescence polarization when urokinase receptor (uPAR) was incubated with varying concentrations of compounds for 24 h at 4° C. followed by addition of a urokinase-derived fluorescently-labeled peptide AE147 (mean±s.d.; n=3). […]

GST-TEAD4 = target: T2, GST-TEAD4 (Homo sapiens, UniProt Q15561); assay: Size-exclusion chromatography for protein aggregation; conditions: 100 μM, 24 h at 4° C.
T2 construct: TEAD4 (217-434), TEAD4 (217-434) Cys367Ser mutant and Yap1 (Full-length) were expressed as GST-fusion proteins; made in house; host or cells: E. coli BL-21 (DE3), pGEX-6P-1
T2 sequence (Q15561 217-434): as the sequence (Q15561 217-434) above
Protocol: 2 ml of 6.3 μM GST-TEAD4 in PBS was incubated with 100 μM 2 compound 2 in 2% v/v DMSO or DMSO without compound for 24 h at 4° C. After the incubation, the samples were injected into a HiLoad 26/600 Superdex 200 pg SEC column, pre-equilibrated with PBS. The elution profile of the column was analyzed for protein aggregation.

TEAD4.Yap1 interaction = TEAD4.Yap1 interaction (Homo sapiens, UniProt Q15561); assay: Co-immunoprecipitation of Myc-tagged TEAD4 with Flag-tagged Yap1 in HEK293 cells; format: cell-based; design: expressed in transfected cells; host or cells: HEK293; conditions: 5 μM, 48 hours
Sequence of TEAD4.Yap1 interaction (Q15561 whole entry): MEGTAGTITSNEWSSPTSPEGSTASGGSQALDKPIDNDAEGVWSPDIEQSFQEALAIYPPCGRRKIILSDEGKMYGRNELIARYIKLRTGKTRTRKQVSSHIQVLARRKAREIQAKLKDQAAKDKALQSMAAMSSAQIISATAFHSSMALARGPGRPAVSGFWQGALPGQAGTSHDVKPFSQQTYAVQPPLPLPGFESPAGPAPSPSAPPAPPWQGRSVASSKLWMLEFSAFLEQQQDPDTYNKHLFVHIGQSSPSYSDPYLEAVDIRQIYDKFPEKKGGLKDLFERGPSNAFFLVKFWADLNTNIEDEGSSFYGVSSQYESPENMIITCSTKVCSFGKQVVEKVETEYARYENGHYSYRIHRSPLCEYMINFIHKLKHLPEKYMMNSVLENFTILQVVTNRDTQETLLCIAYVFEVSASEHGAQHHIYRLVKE
Protocol: HEK293 cells transfected with Flag-YAP1 alone or in combination with myc-TEAD4 were incubated with DMSO or the indicated amount of compounds for 48 hours. Cells were harvested in lysis buffer (50 mM Tris-HCl, pH 7.3, 150 mM NaCl, 0.5 mM EDTA, 1% Triton X-100, PhosSTOP phosphatase inhibitor cocktail, and complete EDTA-free protease inhibitors cocktail). Extracts were immunoprecipitated with magnetic beads coupled to the M2 (anti-Flag) antibody (Sigma-Aldrich) for 4 h at 4° C. Dynabeads were then washed and bound proteins were denatured and eluted according to the manufacturer's instructions. Relative levels of myc-TEAD4 from each complex was then measured by immunoblot analysis with the anti-c-Myc antibody (1:5,000, Sigma-Aldrich).

inhibition of TEAD4 binding to full-length Yap1 [2]: dose- and time-dependent inhibition | inhibition of uPAR.uPA interaction [3]: no inhibition | aggregation of GST-TEAD4 (GST-TEAD4): No significant aggregation
SMILES: O=C(CCl)c1ccccc1Nc1cccc(C(F)(F)F)c1 [Compound 2, 2-chloro-1-(2-((3-(trifluoromethyl)phenyl)amino)phenyl)ethanone]
TEAD4 transcriptional activity in GBM43 cells [1]: inhibited TEAD4 transcriptional activity | co-immunoprecipitation of Myc-tagged TEAD4 with Flag-Tagged Yap1 (TEAD4.Yap1 interaction): significant loss of co-immunoprecipitation
